As usually defined, the pKa is the negative logarithm of the acid dissociation constant.

Assay in series [1]: not given
This is another data set of the same source.

The conditions of series [2]: 16000 nM, pH 7.4.
The next series addresses Asp19 (UniProt position 362, WTGMIDGWYGY). The experiment in a line: NMR. Particulars: micelle-bound peptide with lysine tail; cited from earlier work.
In a further series the target is Glu11 (UniProt position 354, IAGFIEGGWTG). In words: NMR. The note with it: micelle-bound peptide with lysine tail; cited from earlier work.
Another series deals with Nterm1 (UniProt position 344, SIQSRGLFGAI). In words: NMR. The note with it: micelle-bound peptide with lysine tail; cited from earlier work.

Read-outs that look alike come from different tables or passages of the source. Where no end group is shown, it is not given here.

In the case of “GLFGAIAGFIEGGWTGMIDGWYGS [influenza fusion peptide]”, the amide I band peak position came to 1660 cm⁻¹. In addition, the “partition coefficient (Kp) between the aqueous and lipid phases” value in series [1] (pH 5) is “(1.0 ± 0.1) × 10^4”. The “partition coefficient (Kp) between the aqueous and lipid phases” value in series [1] (pH 7.4) is listed as “(2.9 ± 0.4) × 10^4”. Further, the “percentage of lipid mixing” value in series [2] was found to be 23.9 ± 1.8%.
In the case of “Influenza hemagglutinin HA2 fusion peptide (HAfp23) with C-terminal hydrophilic lysine tail (Influenza A virus (subtype H1; strain not stated))”, the pKa with Asp19 is on record as 4.35; with Glu11 it was 5.31; with Nterm1, 8.8.

The values above are taken from article PMC7674464, “Effect of pH on the influenza fusion peptide properties unveiled by constant-pH molecular dynamics simulations combined with experiment” (Scientific Reports, 2020).
